Laboratory results from patent publication US20060089378A1 (priority 2004, published 2006).

What was measured:
Cannabinoid CB2 Receptor = biological target: T1, Cannabinoid CB2 Receptor (Homo sapiens, UniProt P34972); test: Binding assay for CB2 agonists or inverse agonists (radioligand competition, membranes of transfected SK-N-MC cells); conditions: for inhibition at 0.2 µM: read-out: Cannabinoid CB2 Receptor Binding percent inhibition
T1 construct: expressed in transfected cells

Cannabinoid CB1 Receptor = biological target: T2, Cannabinoid CB1 Receptor (Homo sapiens, UniProt P21554); test: Binding assay for CB1 agonists or inverse agonists (radioligand competition, membranes of transfected SK-N-MC cells); conditions: for inhibition at 0.2 µM: read-out: Cannabinoid CB1 Receptor Binding percent inhibition
T2 construct: expressed in transfected cells
T2 sequence (P21554 whole entry): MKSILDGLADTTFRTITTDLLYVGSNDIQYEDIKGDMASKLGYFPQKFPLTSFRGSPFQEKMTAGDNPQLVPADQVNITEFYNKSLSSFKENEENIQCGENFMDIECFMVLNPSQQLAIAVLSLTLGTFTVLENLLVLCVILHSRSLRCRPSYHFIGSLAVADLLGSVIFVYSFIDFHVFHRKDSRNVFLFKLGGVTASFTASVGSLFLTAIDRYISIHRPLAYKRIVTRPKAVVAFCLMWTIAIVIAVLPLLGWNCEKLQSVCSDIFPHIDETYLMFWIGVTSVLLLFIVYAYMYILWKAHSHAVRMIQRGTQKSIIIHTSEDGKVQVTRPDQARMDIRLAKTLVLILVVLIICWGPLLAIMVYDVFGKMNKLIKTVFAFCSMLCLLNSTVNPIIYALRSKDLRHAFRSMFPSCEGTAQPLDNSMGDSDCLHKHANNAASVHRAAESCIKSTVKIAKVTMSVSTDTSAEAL

CB1 receptor (human) = CB1 receptor (human) (Homo sapiens, UniProt P21554); test: cell-based; conditions: for CB1 Receptor Functional Activity (change in functional activity, CRE β-gal): one compound concentration, β-galactosidase activity relative to vehicle treated cells
CB1 receptor (human), sequence (P21554 whole entry): as above

CB2 receptor (human) = biological target: T3, CB2 receptor (human) (Homo sapiens, UniProt P34972); test: Functional cell-based assay, CB2 receptor mediated change in CRE β-gal expression (adenylate cyclase activity) in SK-N-MC cells
T3 construct: expressed in transfected cells
T3 sequence (P34972 whole entry): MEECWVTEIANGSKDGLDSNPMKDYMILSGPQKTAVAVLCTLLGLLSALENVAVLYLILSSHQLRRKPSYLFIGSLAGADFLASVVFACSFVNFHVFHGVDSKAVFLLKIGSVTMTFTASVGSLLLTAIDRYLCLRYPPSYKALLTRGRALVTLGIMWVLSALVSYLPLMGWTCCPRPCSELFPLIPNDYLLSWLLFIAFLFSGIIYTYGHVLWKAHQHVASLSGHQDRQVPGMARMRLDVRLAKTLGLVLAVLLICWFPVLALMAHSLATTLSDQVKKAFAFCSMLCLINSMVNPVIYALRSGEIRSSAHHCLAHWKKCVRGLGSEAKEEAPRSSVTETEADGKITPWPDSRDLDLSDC

T1 sequence (P34972 whole entry): as above

Row | Structure (SMILES) | IC50 (Cannabinoid CB2 Receptor) | IC50 (Cannabinoid CB1 Receptor) | EC50 (CB1 receptor (human)) | EC50 (CB2 receptor (human)) | inhibition at 0.2 µM (Cannabinoid CB2 Receptor) | inhibition at 0.2 µM (Cannabinoid CB1 Receptor) | CB1 Receptor Functional Activity (change in functional activity, CRE β-gal) (CB1 receptor (human))
1 | COC(=O)N1CCc2c(c(C(=O)NC3C4(C)CCC(C4)C3(C)C)nn2C2CCCCC2)C1 (stereo not shown) [Cpd 119, 1-cyclohexyl-3-(1,3,3-trimethyl-bicyclo[2.2.1]hept-2-ylcarbamoyl)-1,4,6,7-tetrahydro-pyrazolo[4,3-c]pyridine-5-carboxylic acid methyl ester] | 90 nM | 200 nM | 200 nM | 20 nM |  |  | 
2 | CC(=O)N1CCc2c(c(C(=O)NC3C4(C)CCC(C4)C3(C)C)nn2C2CCCCC2)C1 (stereo not shown) [Cpd 123, 5-acetyl-1-cyclohexyl-4,5,6,7-tetrahydro-1H-pyrazolo[4,3-c]pyridine-3-carboxylic acid (1,3,3-trimethyl-bicyclo[2.2.1]hept-2-yl)-amide] | 40 nM | 200 nM |  | 14 nM |  |  | 
3 | Cc1ccc(S(=O)(=O)N2CCc3c(c(C(=O)NC4C5(C)CCC(C5)C4(C)C)nn3C3CCCCC3)C2)cc1 (stereo not shown) [Cpd 124, 1-cyclohexyl-5-(toluene-4-sulfonyl)-4,5,6,7-tetrahydro-1H-pyrazolo[4,3-c]pyridine-3-carboxylic acid (1,3,3-trimethyl-bicyclo[2.2.1]hept-2-yl)-amide] | 20 nM | 1500 nM |  | 30 nM |  |  | 
4 | CCOC(=O)CN1C/C(=C\c2ccc(F)cc2)c2c(c(C(=O)N[C@H](C)c3ccccc3)nn2-c2ccc(Cl)cc2)C1 [Cpd 72, (7E)-[1-(4-chloro-phenyl)-7-(4-fluoro-benzylidene)-3-[(1R)-1-phenyl-ethylcarbamoyl]-1,4,6,7-tetrahydro-pyrazolo[4,3-c]pyridin-5-yl]-acetic acid ethyl ester] |  | 10 nM | 5 nM |  | 17% |  | 
5 | CCOC(=O)CN1C/C(=C\c2ccc(F)cc2)c2c(c(C(=O)N[C@H](C)c3ccccc3)nn2-c2ccc(Cl)cc2Cl)C1 [Cpd 43, (7E)-[1-(2,4-dichloro-phenyl)-7-(4-fluoro-benzylidene)-3-[(1R)-1-phenyl-ethylcarbamoyl]-1,4,6,7-tetrahydro-pyrazolo[4,3-c]pyridin-5-yl]-acetic acid ethyl ester] |  | 2 nM | 0.6 nM |  | 36% |  | 
6 | COC(=O)N1C/C(=C\c2ccc(OC)cc2)c2c(c(C(=O)N[C@H](C)c3ccccn3)nn2-c2ccc(Cl)cc2Cl)C1 [Cpd 96, (7E)-1-(2,4-dichloro-phenyl)-7-(4-methoxy-benzylidene)-3-[(1R)-1-pyridin-2-yl-ethylcarbamoyl]-1,4,6,7-tetrahydro-pyrazolo[4,3-c]pyridine-5-carboxylic acid methyl ester] |  | 3 nM | 1 nM |  | 56% |  | 
7 | CCNC(=O)N1C/C(=C\c2ccc(OC)cc2)c2c(c(C(=O)N[C@H](C)c3ccccc3)nn2-c2ccc(Cl)cc2Cl)C1 [Cpd 41, (7E)-1-(2,4-dichloro-phenyl)-7-(4-methoxy-benzylidene)-1,4,6,7-tetrahydro-pyrazolo[4,3-c]pyridine-3,5-dicarboxylic acid 5-ethylamide 3-{[(1R)-1-phenyl-ethyl]-amide}] |  | 9 nM | 0.2 nM |  | 27% |  | 
8 | COC(=O)N1C/C(=C\c2ccc(F)cc2)c2c(c(C(=O)NC(C)c3ccccn3)nn2-c2ccc(Cl)cc2Cl)C1 (stereo not shown) [Cpd 23, (7E)-1-(2,4-dichloro-phenyl)-7-(4-fluoro-benzylidene)-3-(1-pyridin-2-yl-ethylcarbamoyl)-1,4,6,7-tetrahydro-pyrazolo[4,3-c]pyridine-5-carboxylic acid methyl ester] |  | 10 nM | 4 nM |  | 18% |  | 
9 | COC(=O)N1C/C(=C\c2ccc(OC)cc2)c2c(c(C(=O)N[C@H](C)c3ccccc3)nn2-c2ccc(Cl)cc2Cl)C1 [Cpd 44] |  | 2 nM | 0.2 nM |  | 69% |  | 
10 | CC(NC(=O)c1nn(-c2ccc(Cl)cc2)c2c1CNC/C2=C\c1ccc(F)cc1)c1ccccn1 (stereo not shown) [Cpd 75, (7E)-1-(4-chloro-phenyl)-7-(4-fluoro-benzylidene)-4,5,6,7-tetrahydro-1H-pyrazolo[4,3-c]pyridine-3-carboxylic acid (1-pyridin-2-yl-ethyl)-amide] |  | 200 nM | 40 nM |  | 0% |  | 
11 | CCCCn1nc(C(=O)NC2C3(C)CCC(C3)C2(C)C)c2c1CCN(C(=O)OC)C2 (stereo not shown) [Cpd 116, 1-butyl-3-(1,3,3-trimethyl-bicyclo[2.2.1]hept-2-ylcarbamoyl)-1,4,6,7-tetrahydro-pyrazolo[4,3-c]pyridine-5-carboxylic acid methyl ester] |  | 100 nM | 2900 nM |  | 53% |  | 
12 | CC(C)(C)OC(=O)N1C/C(=C\c2ccc(F)cc2)c2c(c(C(=O)NN3CCCCC3)nn2-c2ccc(Cl)cc2Cl)C1 [Cpd 9, (7E)-1-(2,4-dichloro-phenyl)-7-(4-fluoro-benzylidene)-3-(piperidin-1-ylcarbamoyl)-1,4,6,7-tetrahydro-pyrazolo[4,3-c]pyridine-5-carboxylic acid tert-butyl ester] |  |  | 20 nM |  | 8% | 55% | 
13 | CCOC(=O)N1CCc2c(c(C(=O)NC3C4(C)CCC(C4)C3(C)C)nn2-c2ccccc2)C1 (stereo not shown) [Cpd 113, 1-phenyl-3-(1,3,3-trimethyl-bicyclo[2.2.1]hept-2-ylcarbamoyl)-1,4,6,7-tetrahydro-pyrazolo[4,3-c]pyridine-5-carboxylic acid ethyl ester] | 80 nM | 2300 nM |  |  |  |  | 57%
14 | CCNC(=O)N1C/C(=C\c2ccc(F)cc2)c2c(c(C(=O)NC(C)c3ccccn3)nn2-c2ccc(Cl)cc2Cl)C1 (stereo not shown) [Cpd 24, (7E)-1-(2,4-dichloro-phenyl)-7-(4-fluoro-benzylidene)-1,4,6,7-tetrahydro-pyrazolo[4,3-c]pyridine-3,5-dicarboxylic acid 5-ethylamide 3-[(1-pyridin-2-yl-ethyl)-amide]] |  | 20 nM | 20 nM |  | 6% |  | 
15 | COc1ccc(/C=C2\CN(S(C)(=O)=O)Cc3c(C(=O)NN4CCCCC4)nn(-c4ccc(Cl)cc4Cl)c32)cc1 [Cpd 53, (7E)-1-(2,4-dichloro-phenyl)-5-methanesulfonyl-7-(4-methoxy-benzylidene)-4,5,6,7-tetrahydro-1H-pyrazolo[4,3-c]pyridine-3-carboxylic acid piperidin-1-ylamide] |  | 30 nM | 5 nM |  | 29% |  | 
16 | C[C@@H](NC(=O)c1nn(-c2ccc(Cl)cc2Cl)c2c1CN(S(C)(=O)=O)C/C2=C\c1ccc(F)cc1)c1ccccn1 [Cpd 140, (7E)-1-(2,4-dichloro-phenyl)-7-(4-fluoro-benzylidene)-5-methanesulfonyl-4,5,6,7-tetrahydro-1H-pyrazolo[4,3-c]pyridine-3-carboxylic acid [(1R)-1-pyridin-2-yl-ethyl]-amide] |  |  | 2 nM |  | 9% | 96% | 
17 | COc1ccc(/C=C2\CNCc3c(C(=O)NN4CC5CCCC5C4)nn(-c4ccc(Cl)cc4Cl)c32)cc1 (stereo not shown) [Cpd 95, (7E)-1-(2,4-dichloro-phenyl)-7-(4-methoxy-benzylidene)-4,5,6,7-tetrahydro-1H-pyrazolo[4,3-c]pyridine-3-carboxylic acid (hexahydro-cyclopenta[c]pyrrol-2-yl)-amide] |  | 80 nM | 9 nM |  | 20% |  | 
18 | CC(=O)N1C/C(=C\c2ccc(F)cc2)c2c(c(C(=O)N[C@H](C)c3ccccc3)nn2-c2ccc(Cl)cc2Cl)C1 [Cpd 3, (7E)-5-acetyl-1-(2,4-dichloro-phenyl)-7-(4-fluoro-benzylidene)-4,5,6,7-tetrahydro-1H-pyrazolo[4,3-c]pyridine-3-carboxylic acid [(1R)-1-phenyl-ethyl]-amide] |  | 10 nM | 3 nM |  | 20% |  | 
19 | CC(=O)N1C/C(=C\c2ccc(F)cc2)c2c(c(C(=O)N[C@@H](C)C3CCCCC3)nn2-c2ccc(Cl)cc2Cl)C1 [Cpd 6, (7E)-5-acetyl-1-(2,4-dichloro-phenyl)-7-(4-fluoro-benzylidene)-4,5,6,7-tetrahydro-1H-pyrazolo[4,3-c]pyridine-3-carboxylic acid [(1S)-1-cyclohexyl-ethyl]-amide] |  | 100 nM | 30 nM |  | 14% |  | 
20 | COc1ccc(/C=C2\CN(C(=O)OC(C)(C)C)Cc3c(C(=O)NC(C)c4ccccn4)nn(-c4ccc(Cl)cc4Cl)c32)cc1 (stereo not shown) [Cpd 36, (7E)-1-(2,4-dichloro-phenyl)-7-(4-methoxy-benzylidene)-3-(1-pyridin-2-yl-ethylcarbamoyl)-1,4,6,7-tetrahydro-pyrazolo[4,3-c]pyridine-5-carboxylic acid tert-butyl ester] |  | 40 nM | 6 nM |  | 27% |  | 
21 | CC12CCC(C1)C(C)(C)[C@H]2NC(=O)c1nn(Cc2ccccc2)c2c1CNCC2 (stereo partly drawn) [Cpd 105, 1-benzyl-4,5,6,7-tetrahydro-1H-pyrazolo[4,3-c]pyridine-3-carboxylic acid [(2S)-1,3,3-trimethyl-bicyclo[2.2.1]hept-2-yl]-amide] | 500 nM | 200 nM |  |  |  |  | −18%
22 | CCNC(=O)N1C/C(=C\c2ccc(OC)cc2)c2c(c(C(=O)NN3CCCCC3)nn2-c2ccc(Cl)cc2Cl)C1 [Cpd 56, (7E)-1-(2,4-dichloro-phenyl)-7-(4-methoxy-benzylidene)-1,4,6,7-tetrahydro-pyrazolo[4,3-c]pyridine-3,5-dicarboxylic acid 5-ethylamide 3-piperidin-1-ylamide] |  | 20 nM | 7 nM |  | 28% |  | 
23 | CCOC(=O)CN1C/C(=C\c2ccc(OC)cc2)c2c(c(C(=O)NN3CCCCC3)nn2-c2ccc(Cl)cc2Cl)C1 [Cpd 59, (7E)-[1-(2,4-dichloro-phenyl)-7-(4-methoxy-benzylidene)-3-(piperidin-1-ylcarbamoyl)-1,4,6,7-tetrahydro-pyrazolo[4,3-c]pyridin-5-yl]-acetic acid ethyl ester] |  | 40 nM | 30 nM |  | 23% |  | 
